Patent US6737383B1, “Herbicidal oxadiazolidines” (priority 1999, dated 2004)

How the values were obtained:
bamyardgrass = experiment: Test B flood test barnyardgrass; type: in vivo, Echinochloa crus-galli
How it was run: (§1)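 Each value is a visual injury score relative to controls, with 10 meaning complete control and 0 no effect. Evaluation took place twelve to sixteen days after the 2-leaf-stage plants were treated and kept in the greenhouse.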

bedstraw = experiment: Test B pre/postemergence bedstraw; type: in vivo, Galium aparine
How it was run: (§2)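 Response is a visual 0-to-10 score relative to untreated plants, where 0 means no effect and 10 means complete control, taken twelve to sixteen days after application. Treatments went onto soil at planting and onto foliage of 1- to 4-leaf plants, using a surfactant-containing non-phytotoxic solvent.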

purple nutsedge = experiment: Test B pre/postemergence purple nutsedge; type: in vivo, Cyperus rotundus
How it was run: as §2

duck salad = experiment: Test B flood test duck salad; type: in vivo, Heteranthera limosa
How it was run: as §1

[1] = Rate 62 g/ha, headed Pre-emergence (flood test species), scale 0 to 10 (0 no effect, 10 complete control)
[2] = Rate 125 g/ha, Pre-emergence, flood test species, scale 0 to 10 where 0 is no effect and 10 is complete control
[3] = Rate 250 g/ha, Pre-emergence, flood-test species, scale 0 to 10, 0 is no effect, 10 is complete control
[4] = Rate 500 g/ha, Pre-emergence, flood test species, scale 0 to 10 (0 no effect, 10 complete control)
[5] = Preemergence, Rate 250 g/ha, scale of 0 to 10 where 0 is no effect and 10 is complete control
[6] = Preemergence, Rate 500 g/ha, scale of 0 to 10 where 0 is no effect and 10 is complete control
[7] = Rate 62 g/ha, Postemergence, scale 0 to 10 (0 no effect, 10 complete control)
[8] = Rate 125 g/ha, Postemergence, scale of 0 to 10 where 0 is no effect and 10 is complete control
[9] = Rate 125 g/ha, Preemergence, scale of 0 to 10 where 0 is no effect and 10 is complete control
[10] = Rate 250 g/ha, Postemergence, scale of 0 to 10 where 0 is no effect and 10 is complete control
[11] = Rate 500 g/ha, Postemergence, scale 0 to 10, 0 no effect, 10 complete control
[12] = Postemergence block (flood test species), Rate 250 g/ha, scale 0 to 10
[13] = Postemergence section (flood test species), Rate 500 g/ha, scale of 0 to 10 where 0 is no effect and 10 is complete control
[14] = Rate 62 g/ha, Postemergence (flood test species), scale of 0 to 10 where 0 is no effect and 10 is complete control
[15] = Rate 125 g/ha, Postemergence section (flood test species), scale 0 to 10, 0 is no effect, 10 is complete control
[16] = Rate 125 g/ha, Postemergence, scale 0 to 10, 0 is no effect, 10 is complete control
[17] = Preemergence, Rate 125 g/ha, scale of 0 to 10 where 0 is no effect and 10 is complete control
[18] = Rate 62 g/ha, flood test species, Pre-emergence, visual evaluation after twelve to sixteen days
[19] = Rate 125 g/ha, under heading Pre-emergence, flood test species, visual evaluation after twelve to sixteen days
[20] = Rate 250 g/ha, Pre-emergence (flood test species), scale 0 to 10, 0 is no effect, 10 is complete control
[21] = Rate 500 g/ha, Pre-emergence section of Table B, 0 to 10 scale (0 no effect, 10 complete control)

With Cc1ccccc1-n1c(=O)on(C(=O)N(c2ccc3c(c2)CCC3)C(C)C)c1=O [Compound 278] the “Barnyardgrass plant response rating” value (bamyardgrass; [1]) was 0, the “Barnyardgrass plant response rating” value (bamyardgrass; [2]) was 0 and the “Barnyardgrass plant response rating” value (bamyardgrass; [3]) was 0. The “Barnyardgrass plant response rating” value (bamyardgrass; [4]) was 0, the “Bedstraw plant response rating” value (bedstraw; [5]) was 0 and the “Plant response rating, Bedstraw” value (bedstraw; [6]) was 0. The “Bedstraw plant response rating” value (bedstraw; [7]) was 0, the “Bedstraw plant response rating” value (bedstraw; [8]) was 0 and the “Bedstraw plant response rating” value (bedstraw; [9]) was 0. For the same compound, the “Plant response rating, Bedstraw” value (bedstraw; [10]) was 6, the “Bedstraw plant response rating” value (bedstraw; [11]) was 8 and the “Nutsedge plant response rating” value (purple nutsedge; [5]) was 0. The “Nutsedge plant response rating” value (purple nutsedge; [7]) was 0, the “Nutsedge plant response rating” value (purple nutsedge; [8]) was 0 and the “Nutsedge plant response rating” value (purple nutsedge; [9]) was 0. For the same compound, the “Plant response rating, Nutsedge” value (purple nutsedge; [10]) was 0, the “Nutsedge plant response rating” value (purple nutsedge; [11]) was 0 and the “Ducksalad plant response rating” value (duck salad; [1]) was 0. For the same compound, the “Ducksalad plant response rating” value (duck salad; [2]) was 0, the “Ducksalad plant response rating” value (duck salad; [3]) was 0 and the “Ducksalad plant response rating” value (duck salad; [4]) was 0.

In the case of CC(C)N(C(=O)n1oc(=O)n(CC#N)c1=O)c1ccccc1 [Compound 434], the “Barnyardgrass plant response rating” value (bamyardgrass; [12]) is reported as 0, the “Barnyardgrass plant response rating” value (bamyardgrass; [13]) is reported as 0 and the “Barnyardgrass plant response rating” value (bamyardgrass; [14]) is reported as 0. For the same compound, the “Barnyardgrass plant response rating” value (bamyardgrass; [15]) was 0, the “Bedstraw plant response rating” value (bedstraw; Rate 62 g/ha, Postemergence, scale of 0 to 10 where 0 is no effect and 10 is complete control) was 0 and the “Bedstraw plant response rating” value (bedstraw; [16]) was 0. For the same compound, the “Nutsedge plant response rating” value (purple nutsedge; Postemergence, Rate 250 g/ha, scale 0 to 10) was 0, the “Nutsedge plant response rating” value (purple nutsedge; Postemergence, Rate 500 g/ha, scale of 0 to 10 where 0 is no effect and 10 is complete control) was 0 and the “Plant response rating, Nutsedge” value (purple nutsedge; Preemergence, Rate 62 g/ha, scale 0 to 10 (0 no effect, 10 complete control)) was 0. The “Plant response rating, Nutsedge” value (purple nutsedge; [17]) was 0, the “Nutsedge plant response rating” value (purple nutsedge; Preemergence, Rate 250 g/ha, scale 0 to 10, 0 is no effect, 10 is complete control) was 0 and the “Nutsedge plant response rating” value (purple nutsedge; Preemergence, Rate 500 g/ha, scale 0 to 10, 0 is no effect, 10 is complete control) was 0. For the same compound, the “Nutsedge plant response rating” value (purple nutsedge; [16]) was 0, the “Ducksalad plant response rating” value (duck salad; [12]) was 0 and the “Ducksalad plant response rating” value (duck salad; [13]) was 0. The “Ducksalad plant response rating” value (duck salad; [14]) was 0 and the “Ducksalad plant response rating” value (duck salad; [15]) was 0.

CC(C)N(C(=O)n1oc(=O)n(CC(=O)C2CC2)c1=O)c1ccc(Cl)cc1 [Compound 639] was tested, and the “Plant response rating, Barnyardgrass (0 to 10 scale, 0 is no effect, 10 is complete control)” value (bamyardgrass; [18]) was 0, the “Barnyardgrass plant response rating (0 to 10 scale, 0 is no effect, 10 is complete control)” value (bamyardgrass; [19]) was 0 and the “Barnyardgrass plant response rating” value (bamyardgrass; [20]) was 0. For the same compound, the “Barnyardgrass plant response rating” value (bamyardgrass; [21]) was 0, the “Plant response rating, Nutsedge” value (purple nutsedge; Postemergence, Rate 62 g/ha, scale 0 to 10, 0 is no effect, 10 is complete control) was 0 and the “Plant response rating, Nutsedge” value (purple nutsedge; Postemergence, Rate 125 g/ha, scale of 0 to 10 where 0 is no effect and 10 is complete control) was 0. The “Nutsedge plant response rating” value (purple nutsedge; Preemergence, Rate 62 g/ha, scale of 0 to 10 where 0 is no effect and 10 is complete control) was 0, the “Nutsedge plant response rating” value (purple nutsedge; [17]) was 0 and the “Plant response rating, Nutsedge” value (purple nutsedge; Preemergence, Rate 250 g/ha, scale 0 to 10 (0 no effect, 10 complete control)) was 0. The “Plant response rating, Nutsedge” value (purple nutsedge; [6]) was 0, the “Plant response rating, Ducksalad (0 to 10 scale, 0 is no effect, 10 is complete control)” value (duck salad; [18]) was 0 and the “Ducksalad plant response rating (0 to 10 scale, 0 is no effect, 10 is complete control)” value (duck salad; [19]) was 0. For the same compound, the “Ducksalad plant response rating” value (duck salad; [20]) was 0 and the “Ducksalad plant response rating” value (duck salad; [21]) was 0.
